In BindingDB's records for doi:10.1016/j.bmc.2011.09.058 (National Chemical Laboratory (Csir-Ncl), 2011):

Target: T1, Papain (Carica papaya, UniProt P00784)
T1 sequence (P00784 whole entry): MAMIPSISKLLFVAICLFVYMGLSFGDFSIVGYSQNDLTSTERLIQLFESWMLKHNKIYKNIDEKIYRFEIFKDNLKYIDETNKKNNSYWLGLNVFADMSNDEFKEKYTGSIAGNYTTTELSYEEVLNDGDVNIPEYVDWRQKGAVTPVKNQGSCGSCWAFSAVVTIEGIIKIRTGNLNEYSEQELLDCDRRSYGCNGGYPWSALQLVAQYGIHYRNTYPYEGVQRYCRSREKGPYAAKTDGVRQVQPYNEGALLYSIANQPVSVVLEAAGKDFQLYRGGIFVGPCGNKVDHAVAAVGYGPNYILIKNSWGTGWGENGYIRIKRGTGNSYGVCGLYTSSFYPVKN
Assay: Inhibition of papaya papain using BAPNA as substrate assessed as p-nitroaniline release by spectrophotometric analysis

IC50, > 200 µM:
CCOP(=O)(CC=C(NC(=O)[C@H](Cc1c[nH]c2ccccc12)NC(=O)OCc1ccccc1)c1ccccc1)OCC
CCOP(=O)(CC=C(NC(=O)[C@H](CC(C)C)NC(=O)OCC1c2ccccc2-c2ccccc21)c1ccccc1)OCC
CCOP(=O)(CC=C(NC(=O)[C@H](CC(C)C)NC(=O)OC(C)(C)C)c1ccccc1)OCC
CCOP(=O)(CC=C(NC(=O)[C@H](CC(C)C)NC(=O)OCc1ccccc1)c1ccccc1)OCC
